Key:
[1] = test system: CTV-1 (T-Lymphoblastic Leukemia); test: Bliss excess, mean over the matrix (fraction); higher = more synergy
In short: (§1)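 Cell lines grown in DMEM/F12 or RPMI with 10% FBS were plated in 1536-well plates and held 24 hours at 37°C, 5% CO2 before 72 hours of exposure to two-drug dose matrices, with DMSO typically at 0.2%. CellTiter-Glo 2.0 luminescence gave viability, which was converted to inhibition. Vehicle wells were set to 0 and blank wells to 1. Combination Emax is the second-highest inhibition in the matrix, and Bliss excess is the observed combination effect minus the expected EA + EB − EA·EB, where EA and EB are the single-agent effects.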

[2] = test system: G-292-Clone-A141B1 (Osteosarcoma); test: as above
In short: as §1

[3] = test system: KARPAS-1106P (B-Cell Non-Hodgkin's Lymphoma); test: as above
In short: as §1

[4] = test system: KATOIII (Gastric Carcinoma); test: as above
In short: as §1

[5] = test system: KM-H2 (Hodgkin's Lymphoma); test: as above
In short: as §1

[6] = test system: NCI-H1694 (Small Cell Lung Carcinoma); test: as above
In short: as §1

NCI-H2595 (Mesothelioma) [7] = test: as above
In short: as §1

RH-1 (Ewing's Sarcoma) = test: as above
In short: as §1

[8] = test system: SUIT-2 (Pancreatic Carcinoma); test: as above
In short: as §1

[9] = test system: SW1990 (Pancreatic Carcinoma); test: as above
In short: as §1

[10] = test system: TGBC24TKB (Biliary Tract Carcinoma); test: as above
In short: as §1

[11] = test system: CTV-1 (T-Lymphoblastic Leukemia); test: combination Emax (second highest fraction inhibited in the dose matrix, 72 h); higher = more inhibition; extreme values may be limits of the assay
In short: as §1

[12] = test system: DMS-273 (Small Cell Lung Carcinoma); test: as above
In short: as §1

[13] = test system: G-292-Clone-A141B1 (Osteosarcoma); test: as above
In short: as §1

[14] = test system: HCC2157 (Breast Carcinoma); test: as above
In short: as §1

IGR-1 (Melanoma) = test: as above
In short: as §1

[15] = test system: KARPAS-1106P (B-Cell Non-Hodgkin's Lymphoma); test: as above
In short: as §1

[16] = test system: NALM-6 (B-Lymphoblastic Leukemia); test: as above
In short: as §1

NCI-H2595 (Mesothelioma) [17] = test: as above
In short: as §1

[18] = test system: SW1088 (Low Grade Glioma); test: as above
In short: as §1
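Wherever Bliss excess, mean over the matrix is given: after 72 h of two-drug dosing.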

Work on `NC1(C(=O)N[C@@H](CCO)c2ccc(Cl)cc2)CCN(c2ncnc3[nH]ccc23)CC1` [Capivasertib] + CC(C)n1c(=O)n(C)c2cnc3cc(F)c(-c4ccc(OCCCN5CCCCC5)nc4)cc3c21 [AZD1390] (first compound max 10 µM, 7x7, partner max 0.3 µM) yielded a Bliss excess [1] of -0.0908, a Bliss excess [2] of -0.0453 and a Bliss excess [3] of -0.0004. The Bliss excess [4] was -0.118, the Bliss excess [5] was -0.0554 and the Bliss excess [6] was -0.0081. The Bliss excess (NCI-H2595 (Mesothelioma) [7]) was -0.0609, the Bliss excess (RH-1 (Ewing's Sarcoma)) was -0.0292 and the Bliss excess [8] was -0.0441. The Bliss excess [9] was -0.05, the Bliss excess [10] was -0.0261 and the “combination Emax” value [11] was 0.547. For the same compound, the “combination Emax” value [12] was 0.71, the “combination Emax” value [13] was 0.219 and the “combination Emax” value [14] was 0.999. The “combination Emax” value (IGR-1 (Melanoma)) was 0.334, the “combination Emax” value [15] was 0.392 and the “combination Emax” value [16] was 0.675. The “combination Emax” value (NCI-H2595 (Mesothelioma) [17]) was 0.279 and the “combination Emax” value [18] was 0.624.
Work on `CN(CCO)CC[C@H](CSc1ccccc1)Nc1ccc(S(=O)(=O)NC(=O)c2ccc(N3CCC([C@@H](O)c4ccccc4-c4ccc(Cl)cc4)CC3)cc2)cc1S(=O)(=O)C(F)(F)F` [AZD4320] + C[C@@H](Nc1cc(F)cc(F)c1)c1cc(C(=O)N(C)C)cc2c(=O)cc(N3CCOCC3)oc12 [AZD8186] (first compound max 1 µM, 7x7, partner max 3 µM) yielded a Bliss excess [1] of 0.0326, a Bliss excess [2] of -0.0014 and a Bliss excess [3] of 0.0758. It also gave a Bliss excess [4] of -0.0856, a Bliss excess [5] of 0.0237 and a Bliss excess [6] of 0.0454. The Bliss excess (NCI-H2595 (Mesothelioma) [7]) was 0.0344, the Bliss excess (RH-1 (Ewing's Sarcoma)) was 0.0588 and the Bliss excess [8] was 0.025. For the same compound, the Bliss excess [9] was 0.0048, the Bliss excess [10] was 0.0011 and the “combination Emax” value [11] was 0.719. The “combination Emax” value [12] was 0.649, the “combination Emax” value [13] was 0.799 and the “combination Emax” value [14] was 0.978. For the same compound, the “combination Emax” value (IGR-1 (Melanoma)) was 0.901, the “combination Emax” value [15] was 0.951 and the “combination Emax” value [16] was 0.997. For the same compound, the “combination Emax” value (NCI-H2595 (Mesothelioma) [17]) was 0.271 and the “combination Emax” value [18] was 0.515.
For `CCN(CCO)CCCOc1ccc2c(Nc3cc(CC(=O)Nc4cccc(F)c4)[nH]n3)ncnc2c1` [AZD2811] + C[C@@H]1COCCN1C2=NC(=NC(=C2)C3(CC3)[S@](=N)(=O)C)C4=C5C=CNC5=NC=C4 [AZD6738] (first compound max 1 µM, 7x7, partner max 10 µM), the Bliss excess [1] was 0.0009, the Bliss excess [2] was -0.12 and the Bliss excess [3] was -0.0713. For the same compound, the Bliss excess [4] was -0.0477, the Bliss excess [5] was -0.0249 and the Bliss excess [6] was -0.0073. It also gave a Bliss excess (NCI-H2595 (Mesothelioma) [7]) of -0.0491, a Bliss excess (RH-1 (Ewing's Sarcoma)) of -0.0414 and a Bliss excess [8] of -0.0307. The Bliss excess [9] was -0.0555, the Bliss excess [10] was -0.0407 and the “combination Emax” value [11] was 0.84. For the same compound, the “combination Emax” value [12] was 0.771, the “combination Emax” value [13] was 0.263 and the “combination Emax” value [14] was 0.918. For the same compound, the “combination Emax” value (IGR-1 (Melanoma)) was 0.374, the “combination Emax” value [15] was 0.711 and the “combination Emax” value [16] was 0.957. The “combination Emax” value (NCI-H2595 (Mesothelioma) [17]) was 0.21 and the “combination Emax” value [18] was 0.566.
`COc1cccc(OCCCN)c1-c1cc(Nc2cnc(C#N)cn2)n[nH]1` [Prexasertib] + O=C(c1cc(Cc2n[nH]c(=O)c3ccccc23)ccc1F)N1CCN(C(=O)C2CC2)CC1 [Olaparib] (first compound max 1 µM, 7x7, partner max 10 µM) gave a Bliss excess [1] of -0.122, a Bliss excess [2] of -0.0443 and a Bliss excess [3] of -0.0936. For the same compound, the Bliss excess [4] was -0.149, the Bliss excess [5] was -0.0611 and the Bliss excess [6] was -0.0596. It also gave a Bliss excess (NCI-H2595 (Mesothelioma) [7]) of -0.0053, a Bliss excess (RH-1 (Ewing's Sarcoma)) of -0.0203 and a Bliss excess [8] of -0.0219. For the same compound, the Bliss excess [9] was -0.0617, the Bliss excess [10] was -0.0191 and the “combination Emax” value [11] was 0.821. The “combination Emax” value [12] was 0.919, the “combination Emax” value [13] was 0.3 and the “combination Emax” value [14] was 0.967. The “combination Emax” value (IGR-1 (Melanoma)) was 0.566, the “combination Emax” value [15] was 0.897 and the “combination Emax” value [16] was 0.96. For the same compound, the “combination Emax” value (NCI-H2595 (Mesothelioma) [17]) was 0.23 and the “combination Emax” value [18] was 0.792.

From the supplement of paper PMC11061612
